Legend:
TGF-beta receptor type-1 [1] = biological target: T1, TGF-beta receptor type-1 (Homo sapiens, UniProt P36897); type: cell-based, MDA-MB-468
T1 sequence (P36897 whole entry): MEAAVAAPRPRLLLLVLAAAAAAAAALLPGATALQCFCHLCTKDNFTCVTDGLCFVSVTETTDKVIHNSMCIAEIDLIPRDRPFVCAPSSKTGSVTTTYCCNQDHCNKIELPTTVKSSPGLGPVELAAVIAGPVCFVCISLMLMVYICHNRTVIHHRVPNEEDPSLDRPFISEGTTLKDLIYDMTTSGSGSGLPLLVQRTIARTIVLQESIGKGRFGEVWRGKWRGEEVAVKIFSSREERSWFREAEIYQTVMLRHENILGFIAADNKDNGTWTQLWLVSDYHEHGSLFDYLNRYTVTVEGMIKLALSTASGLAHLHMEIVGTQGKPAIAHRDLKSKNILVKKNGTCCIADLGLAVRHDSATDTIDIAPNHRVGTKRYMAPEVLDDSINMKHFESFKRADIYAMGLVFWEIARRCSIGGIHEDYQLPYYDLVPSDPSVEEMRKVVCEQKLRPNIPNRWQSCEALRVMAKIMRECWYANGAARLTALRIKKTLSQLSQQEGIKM
Description: Inhibition of ALK5 in human MDA-MB-468 cells assessed as inhibition of nuclear translocation of GFP-2/Smad2 fusion reporter gene after 90 mins by Hoechst 3342 staining-based cellomics arrayscan imaging analysis

[2] = Octanol-phosphate buffered saline partition coefficient, log D at pH 7.4
in vivo [3] = settings: Han Wistar, rat, po, 5 umol/kg
Description: Oral bioavailability in Han Wistar rat at 5 umol/kg

in vivo [4] = settings: Han Wistar, rat, plasma, po, 5 umol/kg
Description: AUC in Han Wistar rat at 5 umol/kg, po

TGF-beta receptor type-1 [5] = biological target: T1, TGF-beta receptor type-1; assay: Inhibition of 6His-tagged human ALK5 expressed in baculovirus-infected SF21 cells after 30 mins by fluorescence polarization assay
[6] = Clearance in Han Wistar rat at 5 umol/kg, po; settings: in vivo, iv
[7] = octanol/phosphate buffered saline

Row | SMILES | IC50 (TGF-beta receptor type-1 [1]) | logD [2, 7] | bioavailability (in vivo [3]) | AUC (in vivo [4]) | IC50 (TGF-beta receptor type-1 [5]) | logD ([2]; octanol/water) | clearance [6]
1 | COc1cc(Nc2cc(Oc3ccc(C)nc3C)ccn2)cc(OC)c1OC | 0.021 µM | 3 | 21% | 0.34 µM·h |  |  | 
2 | COc1cc(Nc2cc(Oc3cccnc3)ccn2)cc(OC)c1OC | > 5.8 µM | 2.7 |  |  | 0.227 µM |  | 
3 | Cc1cc(Oc2ccnc(Nc3ccc(F)cc3)c2)c(-c2ccccn2)nc1C | 0.063 µM | 3.2 |  |  | 0.129 µM |  | 
4 | Cc1cc(Oc2ccnc(Nc3ccc(N4CCOCC4)cc3)c2)c(-c2ccccn2)nc1C |  | 2.6 |  |  |  |  | 
5 | COc1cc(Nc2cc(Oc3cc(C)c(C)nc3-c3ccccn3)ccn2)cc(OC)c1OC |  |  | 4% |  |  |  | 
6 | Cc1cc(Oc2ccnc(Nc3ccc(C(=O)N(C)C)cc3)c2)c(-c2ccccn2)nc1C | 0.031 µM | 3.4 |  |  | 0.012 µM |  | 
7 | Cc1cc(Oc2ccnc(Nc3ccccc3N3CCOCC3)c2)c(-c2ccccn2)nc1C |  | 3.1 |  |  |  |  | 
8 | COc1cc(Nc2cc(Oc3ccc(C)nc3-c3ccccn3)ccn2)cc(OC)c1OC | 0.02 µM | 3.4 |  |  | 0.013 µM |  | 
9 | Cc1ccc(Oc2ccnc(Nc3ccc(S(N)(=O)=O)cc3)c2)c(C)n1 |  |  | 75% | 4.95 µM·h |  | 2.5 | 12 mL/min/kg
10 | COc1cc(Nc2cc(Oc3ccc(C)nc3)ccn2)cc(OC)c1OC | 0.282 µM |  |  |  | 0.108 µM | 3.2 | 
11 | COc1ccccc1Nc1cc(Oc2cc(C)c(C)nc2-c2ccccn2)ccn1 | 0.114 µM |  |  |  | 0.007 µM | 3.4 | 
12 | Cc1cc(Oc2ccnc(Nc3cccc(N4CCOCC4)c3)c2)c(-c2ccccn2)nc1C |  | 3.3 |  |  |  |  | 
13 | COc1cc(Nc2cc(Oc3cccnc3C)ccn2)cc(OC)c1OC | 0.628 µM |  |  |  | 0.107 µM |  | 
14 | Cc1cc(Oc2ccnc(Nc3ccc(S(N)(=O)=O)cc3)c2)c(-c2ccccn2)nc1C | 0.027 µM | 2.3 | 20% | 0.47 µM·h | 0.021 µM |  | 

Reference: ChEMBL document CHEMBL1155219, “Rapid generation of a high quality lead for transforming growth factor-beta (TGF-beta) type I receptor (ALK5)” (J Med Chem, 2009)
